Measurements from ChEMBL document CHEMBL5338717, “Discovery of novel PDE4 inhibitors targeting the M-pocket from natural mangostanin with improved safety for the treatment of Inflammatory Bowel Diseases” (Eur J Med Chem, 2022).
Activity calls are given as the source filed them. No cut-off for these calls is given here.

Columns and labels:
[1] = Selectivity index, ratio of IC50 for inhibition of recombinant PDE10A2 (449 to 770 residues) (unknown origin) expressed in Escherichia coli BL21 to IC50 for inhibition of recombinant PDE4D2 (86 to 413 residues) (unknown origin) expressed in Escherichia coli BL21
[2] = target: Voltage-gated inwardly rectifying potassium channel KCNH2 (Homo sapiens, UniProt Q12809); experiment: Inhibition of human ERG; type: toxicity
[3] = target: Dual specificity calcium/calmodulin-dependent 3',5'-cyclic nucleotide phosphodiesterase 1C (Homo sapiens, UniProt Q14123); experiment: Inhibition of recombinant PDE1C (147 to 531 residues) (unknown origin) expressed in Escherichia coli BL21 using [3H]cGMP as substrate incubated for 15 mins by liquid scintillation method
[4] = Selectivity index, ratio of IC50 for inhibition of recombinant PDE1C (147 to 531 residues) (unknown origin) expressed in Escherichia coli BL21 to IC50 for inhibition of recombinant PDE4D2 (86 to 413 residues) (unknown origin) expressed in Escherichia coli BL21
[5] = Elimination half life in Sprague-Dawley rat at 2.5 mg/kg, iv; type: ADME, organism-based; conditions: in vivo, read-out: beta t1/2 (converted)
[6] = target: Cytochrome P450 2D6 (Homo sapiens, UniProt P10635); experiment: Inhibition of human CYP2D6 in human hepatocytes; type: ADME, cell-based, Hepatocyte
[7] = test system: Mus musculus; experiment: Anti-inflammatory bowel disease activity in DSS-induced inflammatory bowel disease C57BL/6 mouse model assessed as decrease in loss of crypt architecture in colon at 5 mg/kg, iv BID and measured after 8 days by Haematoxylin and eosin staining based microscopy; type: functional, organism-based; conditions: time 8.0 day
[8] = test system: Mus musculus; experiment: Anti-inflammatory bowel disease activity in DSS-induced inflammatory bowel disease C57BL/6 mouse model assessed as decrease in epithelial damage in colon at 5 mg/kg, iv BID and measured after 8 days by Haematoxylin and eosin staining based microscopy; type: functional, organism-based; conditions: time 8.0 day
[9] = Selectivity index, ratio of IC50 for inhibition of recombinant PDE3A (679 to 1087 residues) (unknown origin) expressed in Escherichia coli BL21 to IC50 for inhibition of recombinant PDE4D2 (86 to 413 residues) (unknown origin) expressed in Escherichia coli BL21
[10] = Selectivity index, ratio of IC50 for inhibition of PDE7A1 (130 to 482 residues) (unknown origin) expressed in Escherichia coli BL21 to IC50 for inhibition of recombinant PDE4D2 (86 to 413 residues) (unknown origin) expressed in Escherichia coli BL21
[11] = target: cGMP-specific 3',5'-cyclic phosphodiesterase (Homo sapiens, UniProt O76074); experiment: Inhibition of recombinant PDE5A1 (535 to 860 residues) (unknown origin) expressed in Escherichia coli BL21 using [3H]cGMP as substrate incubated for 15 mins by liquid scintillation method
[12] = MRT(0 to 24 hrs) in Sprague-Dawley rat at 2.5 mg/kg, iv; type: ADME, organism-based; conditions: in vivo
[13] = Selectivity index, ratio of IC50 for inhibition of recombinant PDE4B2 (152 to 487 residues) (unknown origin) expressed in Escherichia coli BL21 to IC50 for inhibition of recombinant PDE4D2 (86 to 413 residues) (unknown origin) expressed in Escherichia coli BL21
[14] = test system: Mus musculus; experiment: Anti-inflammatory bowel disease activity in DSS-induced inflammatory bowel disease C57BL/6 mouse model assessed as decrease in mucosal ulceration in colon at 5 mg/kg, iv BID and measured after 8 days by Haematoxylin and eosin staining based microscopy; type: functional, organism-based; conditions: time 8.0 day
[15] = target: 3',5'-cyclic-AMP phosphodiesterase 4D (Homo sapiens, UniProt Q08499); experiment: Inhibition of recombinant PDE4D2 (86 to 413 residues) (unknown origin) expressed in Escherichia coli BL21 using [3H]cAMP as substrate incubated for 15 mins by liquid scintillation method
[16] = Selectivity index, ratio of IC50 for inhibition of recombinant PDE9A2 (181 to 506 residues) (unknown origin) expressed in Escherichia coli BL21 to IC50 for inhibition of recombinant PDE4D2 (86 to 413 residues) (unknown origin) expressed in Escherichia coli BL21
[17] = test system: Mus musculus; experiment: Anti-inflammatory bowel disease activity in DSS-induced inflammatory bowel disease C57BL/6 mouse model assessed as decrease in IL-10 mRNA expression level in colon at 5 mg/kg, iv BID and measured after 8 days by real-time PCR analysis; type: functional, organism-based; conditions: time 8.0 day
[18] = Selectivity index, ratio of IC50 for inhibition of recombinant PDE2A (580 to 919 residues) (unknown origin) expressed in Escherichia coli BL21 to IC50 for inhibition of recombinant PDE4D2 (86 to 413 residues) (unknown origin) expressed in Escherichia coli BL21
[19] = test system: Mus musculus; experiment: Anti-inflammatory bowel disease activity in DSS-induced inflammatory bowel disease C57BL/6 mouse assessed as decrease in neutrophil infiltration in colon at 5 mg/kg, iv BID and measured after 8 days by Haematoxylin and eosin staining based microscopy; type: functional, organism-based; conditions: time 8.0 day
[20] = test system: Mus musculus; experiment: Anti-inflammatory bowel disease activity in DSS-induced inflammatory bowel disease C57BL/6 mouse model assessed as decrease in goblet cells in colon at 5 mg/kg, iv BID and measured after 8 days by Haematoxylin and eosin staining based microscopy; type: functional, organism-based; conditions: time 8.0 day
[21] = test system: Mus musculus; experiment: Anti-inflammatory bowel disease activity in DSS-induced inflammatory bowel disease C57BL/6 mouse model assessed as decrease in diarrhoea by measuring disease activity index score at 5 mg/kg, iv BID and measured upto 8 days; type: functional, organism-based; conditions: time <= 8.0 day
[22] = Selectivity index, ratio of IC50 for inhibition of recombinant PDE8A1 (480 to 828 residues) (unknown origin) expressed in Escherichia coli BL21 to IC50 for inhibition of recombinant PDE4D2 (86 to 413 residues) (unknown origin) expressed in Escherichia coli BL21
[23] = test system: Mus musculus; experiment: Anti-inflammatory bowel disease activity in DSS-induced inflammatory bowel disease C57BL/6 mouse model assessed as decrease in rectal bleeding by measuring disease activity index score at 5 mg/kg, iv BID and measured upto 8 days by Haem-occult test; type: functional, organism-based; conditions: time <= 8.0 day
[24] = test system: Mus musculus; experiment: Anti-inflammatory bowel disease activity in DSS-induced inflammatory bowel disease C57BL/6 mouse model assessed as decrease in IL-6 mRNA expression level in colon at 5 mg/kg, iv BID and measured after 8 days by real-time PCR analysis; type: functional, organism-based; conditions: time 8.0 day
[25] = target: cGMP-dependent 3',5'-cyclic phosphodiesterase (Homo sapiens, UniProt O00408); experiment: Inhibition of recombinant PDE2A (580 to 919 residues) (unknown origin) expressed in Escherichia coli BL21 using [3H]cGMP as substrate incubated for 15 mins by liquid scintillation method
cGMP-dependent 3',5'-cyclic phosphodiesterase, sequence (O00408 whole entry, the tested form may be a part): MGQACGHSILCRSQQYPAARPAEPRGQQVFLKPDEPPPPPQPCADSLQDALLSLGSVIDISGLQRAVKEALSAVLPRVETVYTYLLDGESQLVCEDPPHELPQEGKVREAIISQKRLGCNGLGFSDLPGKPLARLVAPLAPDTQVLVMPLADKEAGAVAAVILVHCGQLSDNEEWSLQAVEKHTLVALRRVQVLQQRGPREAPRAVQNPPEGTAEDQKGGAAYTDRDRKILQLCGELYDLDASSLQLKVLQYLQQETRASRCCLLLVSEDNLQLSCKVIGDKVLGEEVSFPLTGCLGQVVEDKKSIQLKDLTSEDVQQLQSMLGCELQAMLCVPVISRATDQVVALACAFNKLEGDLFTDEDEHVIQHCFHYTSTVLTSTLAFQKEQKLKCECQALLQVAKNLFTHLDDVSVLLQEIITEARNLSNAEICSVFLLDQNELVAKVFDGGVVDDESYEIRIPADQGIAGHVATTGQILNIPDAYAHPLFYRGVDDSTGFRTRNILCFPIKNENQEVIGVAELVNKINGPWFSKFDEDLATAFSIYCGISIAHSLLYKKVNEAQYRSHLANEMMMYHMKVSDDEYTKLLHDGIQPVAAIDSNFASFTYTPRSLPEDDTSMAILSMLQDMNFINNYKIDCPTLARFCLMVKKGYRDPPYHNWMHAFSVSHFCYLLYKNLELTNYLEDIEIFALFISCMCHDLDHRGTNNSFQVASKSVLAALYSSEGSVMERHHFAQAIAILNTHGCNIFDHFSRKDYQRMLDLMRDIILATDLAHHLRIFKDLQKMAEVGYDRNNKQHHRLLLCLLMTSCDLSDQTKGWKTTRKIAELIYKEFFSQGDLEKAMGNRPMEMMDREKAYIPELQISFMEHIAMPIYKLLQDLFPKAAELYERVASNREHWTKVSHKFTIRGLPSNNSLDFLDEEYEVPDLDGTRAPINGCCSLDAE

Cytochrome P450 2D6, sequence (P10635 whole entry): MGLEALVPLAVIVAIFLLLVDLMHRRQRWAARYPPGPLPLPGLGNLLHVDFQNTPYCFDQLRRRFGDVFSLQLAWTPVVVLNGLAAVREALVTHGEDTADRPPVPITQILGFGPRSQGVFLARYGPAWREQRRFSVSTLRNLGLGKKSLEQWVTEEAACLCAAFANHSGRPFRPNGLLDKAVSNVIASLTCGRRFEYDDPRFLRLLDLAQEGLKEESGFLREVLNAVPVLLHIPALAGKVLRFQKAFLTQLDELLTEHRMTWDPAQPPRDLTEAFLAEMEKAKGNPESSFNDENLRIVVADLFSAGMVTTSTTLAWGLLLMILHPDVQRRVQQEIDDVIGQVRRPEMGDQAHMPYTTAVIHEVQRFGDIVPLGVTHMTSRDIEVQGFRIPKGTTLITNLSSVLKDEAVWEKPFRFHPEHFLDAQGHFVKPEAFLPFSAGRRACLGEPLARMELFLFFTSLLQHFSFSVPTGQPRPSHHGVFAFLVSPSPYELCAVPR
3',5'-cyclic-AMP phosphodiesterase 4D, sequence (Q08499 whole entry, the tested form may be a part): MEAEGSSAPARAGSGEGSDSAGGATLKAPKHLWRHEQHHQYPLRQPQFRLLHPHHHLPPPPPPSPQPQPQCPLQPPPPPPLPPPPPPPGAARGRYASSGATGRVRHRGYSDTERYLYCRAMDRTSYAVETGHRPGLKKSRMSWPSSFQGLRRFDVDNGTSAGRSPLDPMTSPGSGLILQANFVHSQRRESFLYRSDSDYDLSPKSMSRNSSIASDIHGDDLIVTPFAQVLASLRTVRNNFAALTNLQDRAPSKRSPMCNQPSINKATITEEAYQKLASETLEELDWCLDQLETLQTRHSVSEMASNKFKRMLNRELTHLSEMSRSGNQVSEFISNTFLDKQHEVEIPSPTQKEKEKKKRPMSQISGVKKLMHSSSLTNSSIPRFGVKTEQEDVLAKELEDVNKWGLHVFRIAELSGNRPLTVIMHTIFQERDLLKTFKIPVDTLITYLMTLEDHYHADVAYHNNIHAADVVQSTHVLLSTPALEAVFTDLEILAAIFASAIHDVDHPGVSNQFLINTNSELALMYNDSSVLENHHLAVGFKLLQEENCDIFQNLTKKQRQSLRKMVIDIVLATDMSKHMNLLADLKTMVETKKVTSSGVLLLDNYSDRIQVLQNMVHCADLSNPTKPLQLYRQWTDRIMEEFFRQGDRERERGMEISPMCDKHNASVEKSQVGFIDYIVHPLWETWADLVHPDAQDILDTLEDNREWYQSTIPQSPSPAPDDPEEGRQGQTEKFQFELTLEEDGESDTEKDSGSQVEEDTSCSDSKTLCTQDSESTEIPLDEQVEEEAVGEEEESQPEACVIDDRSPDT
Voltage-gated inwardly rectifying potassium channel KCNH2, sequence (Q12809 whole entry, the tested form may be a part): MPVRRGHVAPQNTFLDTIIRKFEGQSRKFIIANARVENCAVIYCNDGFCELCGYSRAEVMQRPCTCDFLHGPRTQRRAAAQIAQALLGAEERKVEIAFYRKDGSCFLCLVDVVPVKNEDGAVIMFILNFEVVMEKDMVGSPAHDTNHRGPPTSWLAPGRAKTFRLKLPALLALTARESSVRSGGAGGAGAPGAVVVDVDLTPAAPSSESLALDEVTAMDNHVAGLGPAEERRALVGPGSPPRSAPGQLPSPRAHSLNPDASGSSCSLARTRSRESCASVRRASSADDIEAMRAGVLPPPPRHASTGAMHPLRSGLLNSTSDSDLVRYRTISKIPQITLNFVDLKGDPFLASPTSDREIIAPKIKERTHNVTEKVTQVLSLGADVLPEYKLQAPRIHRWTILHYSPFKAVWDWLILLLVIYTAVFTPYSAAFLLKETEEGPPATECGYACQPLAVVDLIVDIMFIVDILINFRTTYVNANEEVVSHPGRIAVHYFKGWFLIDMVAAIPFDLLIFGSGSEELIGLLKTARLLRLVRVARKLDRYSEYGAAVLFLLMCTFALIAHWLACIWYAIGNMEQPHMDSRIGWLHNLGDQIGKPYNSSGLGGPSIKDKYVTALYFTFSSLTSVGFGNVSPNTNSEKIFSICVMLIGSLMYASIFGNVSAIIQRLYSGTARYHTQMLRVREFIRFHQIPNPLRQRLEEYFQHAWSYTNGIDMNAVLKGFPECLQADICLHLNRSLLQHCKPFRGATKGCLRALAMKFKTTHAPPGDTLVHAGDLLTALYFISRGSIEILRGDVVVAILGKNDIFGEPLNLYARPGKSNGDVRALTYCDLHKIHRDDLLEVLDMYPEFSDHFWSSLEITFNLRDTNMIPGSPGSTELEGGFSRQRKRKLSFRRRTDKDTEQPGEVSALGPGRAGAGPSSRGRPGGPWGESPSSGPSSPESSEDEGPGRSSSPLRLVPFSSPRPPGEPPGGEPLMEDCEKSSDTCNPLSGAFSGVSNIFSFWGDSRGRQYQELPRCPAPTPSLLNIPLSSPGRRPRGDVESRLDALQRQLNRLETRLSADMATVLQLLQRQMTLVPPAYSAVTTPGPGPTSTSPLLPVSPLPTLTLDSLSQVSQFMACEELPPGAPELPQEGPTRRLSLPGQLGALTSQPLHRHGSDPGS
Dual specificity calcium/calmodulin-dependent 3',5'-cyclic nucleotide phosphodiesterase 1C, sequence (Q14123 whole entry, the tested form may be a part): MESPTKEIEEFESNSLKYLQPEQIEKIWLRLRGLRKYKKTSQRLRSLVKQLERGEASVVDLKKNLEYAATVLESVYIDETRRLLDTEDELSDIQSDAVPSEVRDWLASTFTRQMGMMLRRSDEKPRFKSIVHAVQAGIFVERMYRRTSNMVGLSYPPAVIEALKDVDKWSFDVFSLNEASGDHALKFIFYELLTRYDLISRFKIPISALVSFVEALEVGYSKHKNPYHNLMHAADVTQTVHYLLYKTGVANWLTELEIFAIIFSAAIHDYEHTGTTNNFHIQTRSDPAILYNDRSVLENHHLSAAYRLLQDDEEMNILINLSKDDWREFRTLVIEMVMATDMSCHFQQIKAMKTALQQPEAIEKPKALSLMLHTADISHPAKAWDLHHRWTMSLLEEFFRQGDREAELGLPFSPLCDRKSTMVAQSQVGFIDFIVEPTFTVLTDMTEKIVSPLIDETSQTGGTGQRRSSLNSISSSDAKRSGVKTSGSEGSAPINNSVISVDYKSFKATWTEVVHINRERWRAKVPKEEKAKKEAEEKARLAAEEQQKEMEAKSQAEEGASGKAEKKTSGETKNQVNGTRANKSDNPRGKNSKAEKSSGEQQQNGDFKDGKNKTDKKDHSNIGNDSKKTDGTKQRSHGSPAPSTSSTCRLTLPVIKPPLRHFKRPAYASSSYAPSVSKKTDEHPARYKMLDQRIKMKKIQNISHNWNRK

## COc1c(OCC2CC2)cc2oc3cc4c(c(OCc5ccncc5)c3c(=O)c2c1CC=C(C)C)C=CC(C)(C)O4
[1]
  Ratio IC50: 290
[2]
  IC50: > 40 µM
[3]
  IC50: > 10 µM
[4]
  Ratio IC50: > 2800
[5]
  half-life: 4.18 h
[6]
  IC50: > 25 µM
[7]
  Activity: Active
[8]
  Activity: Active
[9]
  Ratio IC50: > 2800
[10]
  Ratio IC50: 4.27
[11]
  IC50: 1.24 µM
[12]
  MRT last: 1.76 h
[13]
  Ratio IC50: 2.71
[14]
  Activity: Active
[15]
  IC50: 0.0035 µM
[16]
  Ratio IC50: > 2800
[17]
  Activity: Active
[18]
  Ratio IC50: > 2800
[19]
  Activity: Active
[20]
  Activity: Active
[21]
  Activity: Active
[22]
  Ratio IC50: 55
[23]
  Activity: Active
[24]
  Activity: Active
[25]
  IC50: > 10 µM
